# Experiments:
# Experiment in all cases: weeding effect in post-emergence stage
# Type in all cases: in vivo
# [1] = test system: Rorippa indica
# Description: (§1) The activity level criteria for plant damage (i.e., growth control rate) are as follows: • Level 5: growth control rate is above 85%; • Level 4: growth control rate is greater than or equal to 60% and less than 85%; • Level 3: growth control rate is greater than or equal to 40% and less than 60%; • Level 2: growth control rate is greater than or equal to 20% and less than 40%; • Level 1: growth control rate is greater than or equal to 5% and less than 20%; • Level 0: growth control rate is less than 5%.
# (§2) The above growth control rates are fresh weight control rates.
# (§3) Experiment on weeding effect in post-emergence stage:
# (§4) Monocotyledonous and dicotyledonous weed seeds (Descurainia sophia, Capsella bursa-pastoris, Abutilon theophrasti, Galium aparine, Stellaria media, Lithospermum arvense, Rorippa indica, Alopecurus aequalis, Alopecurus japonicus, Beckmannia syzigachne, Sclerochloa dura, Conyza Canadensis, Phleum paniculatum, Veronica didyma Tenore, Bromus japonicus, Aegilops tauschii, Phalaris arundinacea, Amaranthus retroflexus, Chenopodium album, Commelina communis, Sonchus arvensis, Convolvulus arvensis, Cirsium setosum, Solanum nigrum, Acalypha australis, Digitaria sanguinalis, Echinochloa crusgalli, Setaria viridis, Setaria glauca, Leptochloa chinensis, Monochoria vaginalis, Sagittaria trifolia, Scirpus juncoides, Cyperus rotundus, Cyperus iria, Cyperus difformis, Fimbristylis, Portulaca oleracea, Xanthium sibiricum, Pharbitis nil, Conyza japonica, etc.) and major crop seeds (wheat, corn, rice, soybean, cotton, oilseed rape, millet, sorghum, potato, sesame, ricinus, etc.) were placed in plastic pots filled with soil, then covered with 0.5-2 cm of soil, allowed to grow in a good greenhouse environment. After 2 weeks of sowing, the test plants were treated in the 2-3 leaf stage. The tested compounds of the present invention were respectively dissolved in acetone, then added with Tween 80 and 1.5 liter/ha of emulsifiable concentrate of methyl oleate as synergist, diluted with a certain amount of water to obtain a solution with a certain concentration, and sprayed with a spray tower onto the plants. After the application, the plants were cultured for 3 weeks in the greenhouse, and then the experimental results of the weeding were counted. The doses of the used compounds were 500, 250, 125, 60, 15, 7.5 g a.i./ha, and the averages were obtained by repeating for three times.
# [2] = test system: Conyza japonica
# Description: as §1, §2, §3, §4
# [3] = test system: Alopecurus japonicus
# Description: as §1, §2, §3, §4
# [4] = test system: Beckmannia syzigachne
# Description: as §1, §2, §3, §4
structure (smiles),measurement,setting,value
CCOC(=O)C1(CO)CC(c2cc(-n3c(=O)cc(C(F)(F)F)n(C)c3=O)c(F)cc2Cl)=NO1 (racemic) [Compound 142],"weeding effect in post-emergence stage, Rorippa indica (activity level)",[1]; dose 125 g a.i./ha,5 (Level 5: growth control rate is above 85%)
same,"weeding effect in post-emergence stage, Conyza japonica (activity level)",[2]; dose 125 g a.i./ha,5 (Level 5: growth control rate is above 85%)
same,"weeding effect in post-emergence stage, Alopecurus japonicus (activity level)",[3]; dose 125 g a.i./ha,5 (Level 5: growth control rate is above 85%)
same,"weeding effect in post-emergence stage, Beckmannia syzigachne (activity level)",[4]; dose 125 g a.i./ha,5 (Level 5: growth control rate is above 85%)
CCOC(=O)C1(C=O)CC(c2cc(-n3c(=O)cc(C(F)(F)F)n(C)c3=O)c(F)cc2Cl)=NO1 (racemic) [Compound 152],"weeding effect in post-emergence stage, Rorippa indica (activity level)",[1]; dose 125 g a.i./ha,5 (Level 5: growth control rate is above 85%)
same,"weeding effect in post-emergence stage, Conyza japonica (activity level)",[2]; dose 125 g a.i./ha,5 (Level 5: growth control rate is above 85%)
same,"weeding effect in post-emergence stage, Alopecurus japonicus (activity level)",[3]; dose 125 g a.i./ha,5 (Level 5: growth control rate is above 85%)
same,"weeding effect in post-emergence stage, Beckmannia syzigachne (activity level)",[4]; dose 125 g a.i./ha,5 (Level 5: growth control rate is above 85%)
CCOC(=O)C1(COC=O)CC(c2cc(-n3c(=O)cc(C(F)(F)F)n(C)c3=O)c(F)cc2Cl)=NO1 (racemic) [Compound 218],"weeding effect in post-emergence stage, Rorippa indica (activity level)",[1]; dose 125 g a.i./ha,5 (Level 5: growth control rate is above 85%)
same,"weeding effect in post-emergence stage, Conyza japonica (activity level)",[2]; dose 125 g a.i./ha,5 (Level 5: growth control rate is above 85%)
same,"weeding effect in post-emergence stage, Alopecurus japonicus (activity level)",[3]; dose 125 g a.i./ha,5 (Level 5: growth control rate is above 85%)
same,"weeding effect in post-emergence stage, Beckmannia syzigachne (activity level)",[4]; dose 125 g a.i./ha,5 (Level 5: growth control rate is above 85%)
CCOC(=O)C1(COC(C)=O)CC(c2cc(-n3c(=O)cc(C(F)(F)F)n(C)c3=O)c(F)cc2Cl)=NO1 (racemic) [Compound 219],"weeding effect in post-emergence stage, Rorippa indica (activity level)",[1]; dose 15 g a.i./ha,4 (Level 4: growth control rate is greater than or equal to 60% and less than 85%)
same,"weeding effect in post-emergence stage, Rorippa indica (activity level)",[1]; dose 125 g a.i./ha,5 (Level 5: growth control rate is above 85%)
same,"weeding effect in post-emergence stage, Conyza japonica (activity level)",[2]; dose 125 g a.i./ha,5 (Level 5: growth control rate is above 85%)
same,"weeding effect in post-emergence stage, Alopecurus japonicus (activity level)",[3]; dose 125 g a.i./ha,5 (Level 5: growth control rate is above 85%)
same,"weeding effect in post-emergence stage, Beckmannia syzigachne (activity level)",[4]; dose 125 g a.i./ha,5 (Level 5: growth control rate is above 85%)
CCOC(=O)C1(COC(=O)C(=O)O)CC(c2cc(-n3c(=O)cc(C(F)(F)F)n(C)c3=O)c(F)cc2Cl)=NO1 (racemic) [Compound 220],"weeding effect in post-emergence stage, Rorippa indica (activity level)",[1]; dose 125 g a.i./ha,5 (Level 5: growth control rate is above 85%)
same,"weeding effect in post-emergence stage, Conyza japonica (activity level)",[2]; dose 125 g a.i./ha,5 (Level 5: growth control rate is above 85%)
same,"weeding effect in post-emergence stage, Alopecurus japonicus (activity level)",[3]; dose 125 g a.i./ha,5 (Level 5: growth control rate is above 85%)
same,"weeding effect in post-emergence stage, Beckmannia syzigachne (activity level)",[4]; dose 125 g a.i./ha,5 (Level 5: growth control rate is above 85%)
COC(=O)C1(OC)CC(c2cc(-n3c(=O)cc(C(F)(F)F)n(C)c3=O)c(F)cc2Cl)=NO1 (racemic) [Compound 226],"weeding effect in post-emergence stage, Rorippa indica (activity level)",[1]; dose 125 g a.i./ha,5 (Level 5: growth control rate is above 85%)
same,"weeding effect in post-emergence stage, Conyza japonica (activity level)",[2]; dose 125 g a.i./ha,5 (Level 5: growth control rate is above 85%)
same,"weeding effect in post-emergence stage, Alopecurus japonicus (activity level)",[3]; dose 125 g a.i./ha,5 (Level 5: growth control rate is above 85%)
same,"weeding effect in post-emergence stage, Beckmannia syzigachne (activity level)",[4]; dose 125 g a.i./ha,5 (Level 5: growth control rate is above 85%)
CCOC(=O)C1(CC)CC(c2cc(-n3c(=S)cc(C(F)(F)F)n(C)c3=O)c(F)cc2Cl)=NO1 (racemic) [Compound 228],"weeding effect in post-emergence stage, Rorippa indica (activity level)",[1]; dose 15 g a.i./ha,5 (Level 5: growth control rate is above 85%)
same,"weeding effect in post-emergence stage, Rorippa indica (activity level)",[1]; dose 125 g a.i./ha,5 (Level 5: growth control rate is above 85%)
same,"weeding effect in post-emergence stage, Conyza japonica (activity level)",[2]; dose 15 g a.i./ha,5 (Level 5: growth control rate is above 85%)
same,"weeding effect in post-emergence stage, Conyza japonica (activity level)",[2]; dose 125 g a.i./ha,5 (Level 5: growth control rate is above 85%)
same,"weeding effect in post-emergence stage, Alopecurus japonicus (activity level)",[3]; dose 15 g a.i./ha,5 (Level 5: growth control rate is above 85%)
same,"weeding effect in post-emergence stage, Alopecurus japonicus (activity level)",[3]; dose 125 g a.i./ha,5 (Level 5: growth control rate is above 85%)
same,"weeding effect in post-emergence stage, Beckmannia syzigachne (activity level)",[4]; dose 15 g a.i./ha,4 (Level 4: growth control rate is greater than or equal to 60% and less than 85%)
same,"weeding effect in post-emergence stage, Beckmannia syzigachne (activity level)",[4]; dose 125 g a.i./ha,5 (Level 5: growth control rate is above 85%)

# — patent US12509452B2, “Substituted-isoxazoline-containing aromatic compound, preparation method therefor, herbicidal composition and use thereof” (QINGDAO KINGAGROOT CHEMICAL COMPOUND CO., LTD., priority 2019, dated 2025)
